Test results reported in patent US6143790A, “L-N^6 -(1-iminoethyl)lysine derivatives useful as nitric oxide synthase inhibitors” (G.D. Searle & Co., priority 1996, dated 2000).
Where a name gives a salt, the structure may show the parent alone.

Columns and labels:
[1] = system: iNOS; assay: % inhibition of iNOS at 100 μM; assay type: biochemical
Experimental: (§1) Citrulline Assay for Nitric Oxide Synthase Nitric oxide synthase activity was measured by monitoring the conversion of L-[2,3-3H]-arginine to L-[2,3-3H]-citrulline (1,2). Human inducible NOS (hiNOS), human endothelial constitutive NOS (hecNOS) and human neuronal constitutive NOS (hncNOS) were each cloned from RNA extracted from human tissue. The recombinant enzymes were expressed in insect cells using a baculovirus vector. Enzyme activity was isolated from cell extracts and partially purified by DEAE-Sepharose chromatography (2). Mouse inducible NOS (miNOS) was prepared from an extract of LPS-treated mouse RAW 264.7 cells and rat brain constitutive NOS (rcNOS) was prepared from an extract of rat cerebellum. Both preparations were partially purified by DEAE-Sepharose chromatography (2). Enzyme and inhibitors were added to give a volume of 50 μL in 50 mM Tris (pH 7.6) and the reaction initiated by the addition of 50 μL of a solution containing 50 mM Tris (pH 7.6), 2.0 mg/mL bovine serum albumin, 2.0 mM DTT, 4.0 mM CaCl2, 20 μM FAD, 100 μM tetrahydrobiopterin, 0.4-2.0 mM NADPH and 60 μM L-arginine containing 0.9 μCi of L-[2,3-3H]-arginine. For constitutive NOS, calmodulin was included at a final concentration of 40-100 nM. Following incubation at 37° C. for 15 minutes, the reaction was terminated by addition of 300 μL cold buffer containing 10 mM EGTA, 100 mM HEPES (pH5.5) and 1.0 mM L-citrulline. The [3H]-citrulline was separated by chromatography on Dowex 50W X-8 cation exchange resin and radioactivity quantified with a liquid scintillation counter.

[2] = target: T1, human neuronal constitutive NOS (hncNOS) (Homo sapiens, UniProt P29475); assay: Citrulline Assay for Nitric Oxide Synthase, hncNOS; assay type: biochemical
T1 construct: made in house; host or cells: insect cells, baculovirus vector
Experimental: (§2) Citrulline Assay for Nitric Oxide Synthase
as §1, with “Nitric” for “Citrulline Assay for Nitric Oxide Synthase Nitric”

[3] = target: T2, RAW cell i-NOS (Mus musculus, UniProt P29477); assay: Raw Cell Nitrite Assay; assay type: cell-based; settings: RAW 264.7 cells, LPS induced, L-arginine 30 μM
T2 construct: grown overnight (17 h) in the presence of LPS to induce NOS; endogenous in cells; host or cells: RAW 264.7 cells, LPS-induced
Experimental: RAW 264.7 cells are plated to confluency on a 96-well tissue culture plate grown overnight (17 h) in the presence of LPS to induce NOS. A row of 3-6 wells are left untreated and served as controls for subtraction of nonspecific background. The media is removed from each well and the cells are washed twice with Krebs-Ringers-Hepes (25 mM, pH 7.4) with 2 mg/ml glucose. The cells are then placed on ice and incubated with 50 μL of buffer containing L-arginine (30 μM) +/-inhibitors for 1 h. The assay is initiated by warming the plate to 37° C. in a water bath for 1 h. Production of nitrite by intracellular iNOS is linear with time. To terminate the cellular assay, the plate of cells is placed on ice and the nitrite-containing buffer removed and analyzed for nitrite using a previously published fluorescent determination for nitrite. All values are the average of triplicate wells and are compared to a background-subtracted induced set of cells (100% value).

[4] = target: T3, Human inducible NOS (hiNOS) (Homo sapiens, UniProt P35228); assay: Citrulline Assay for Nitric Oxide Synthase, hiNOS; assay type: biochemical
T3 construct: made in house; host or cells: insect cells, baculovirus vector
Experimental: as §2
as §1, with “Nitric” for “Citrulline Assay for Nitric Oxide Synthase Nitric”

[5] = target: T4, human endothelial constitutive NOS (hecNOS) (Homo sapiens, UniProt P29474); assay: Citrulline Assay for Nitric Oxide Synthase, hecNOS; assay type: biochemical
T4 construct: made in house; host or cells: insect cells, baculovirus vector
Experimental: as §2
as §1, with “Nitric” for “Citrulline Assay for Nitric Oxide Synthase Nitric”

[6] = system: constitutive and the inducible NO synthase; settings: constitutive vs inducible NO synthase; cited from earlier work

For `CC(=N)NCCCC[C@H](N)C(O)CO` (single isomer, unassigned) [Example 3A, N-(5S-amino-6,7-dihydroxyheptyl)ethanimidamide, dihydrochloride], the “% inhibiton iNOS at 100 μM” value [1] was 53.4%.

With `CC(=N)NCCCC[C@H](N)C(O)CO` (single isomer, unassigned) [Example 3B, N-(5S-amino-6,7-dihydroxyheptyl)ethanimidamide, dihydrochloride] the IC50 [2] was 150 µM, the IC50 [3] was 80 µM and the IC50 [4] was 12.3 µM.

With `CC(=N)NCCCC[C@H](N)C(O)c1ccccc1` (single isomer, unassigned) [Example 11A, α-[1-amino-5-[(1-iminoethyl)amino]pentyl]benzenemethanol hydrochloride dihydrate] the “% inhibiton iNOS at 100 μM (symbol)” value [1] was “* (At 100 μM dose, response was not seen.)”.

With `CC(=N)NCCCC[C@H](N)C(O)c1ccccc1` (single isomer, unassigned) [Example 11B, α-[1-amino-5-[(1-iminoethyl)amino]pentyl]benzenemethanol hydrochloride dihydrate] the “% inhibiton iNOS at 100 μM” value [1] was 4.6%.

With `CC(=N)NCCCC[C@H](N)C(C)(O)CO` (single isomer, unassigned) [Example 15A, N-(5S-amino-6,7-dihydroxy-6-methylheptyl)ethanimidamide, hydrochloride dihydrate] the IC50 [2] was 99.6 µM, the IC50 [5] was 2.35 mM and the IC50 [3] was 57.3 µM. The IC50 [4] was 9.3 µM.

`CC(=N)NCCCC[C@H](N)C(C)(O)CO` (single isomer, unassigned) [Example 15B, N-(5S-amino-6,7-dihydroxy-6-methylheptyl)ethanimidamide, hydrochloride dihydrate] showed an IC50 [2] of 441 µM, an IC50 [5] of 6.59 mM and an IC50 [4] of 187 µM.

`CC(=N)NCCCC[C@H](N)C(O)C(C)O` (single isomer, unassigned) [Example 16B, N-(5S-amino-6,7-dihydroxyoctyl) ethanimidamide, dihydrochloride hydrate] showed an IC50 [2] of 670 µM, an IC50 [5] of 5.43 mM and an IC50 [3] of over 100 µM. It also gave an IC50 [4] of 76.8 µM.

With `CC(=N)NCCCC[C@H](N)C(C)O` (single isomer, unassigned) [Example 40A, N-(5S-amino-6-hydroxyheptyl)ethanimidamide, dihydrochloride dihydrate] the “% inhibiton iNOS at 100 μM” value [1] was 32.6%.

`CC(=N)NCCCC[C@H](N)CC(=O)O` [Example 1, 3S-amino-7-[(1-iminoethyl)amino]heptanoic Acid] gave an IC50 [2] of 898 µM, an IC50 [5] of 1.99 mM and an IC50 [3] of 300 µM. For the same compound, the IC50 [4] was 61 µM.

With `CCOC(=O)C[C@@H](N)CCCCNC(C)=N` [Example 1d, Ethyl 3S-amino-7-[(1-iminoethyl)amino]heptanoate] the “% inhibiton iNOS at 100 μM” value [1] was 35%.

In the case of `CC(=N)NCCC[C@H](N)CC(=O)O` [Example 2, 3S-amino-6-[(1-iminoethyl)amino]hexanoic Acid], the “% inhibiton iNOS at 100 μM (symbol)” value [1] is reported as “* (At 100 μM dose, response was not seen.)”.

With `CCOC(=O)C[C@@H](N)CCCNC(C)=N` [Example 2d] the “% inhibiton iNOS at 100 μM” value [1] was 5%.

In the case of `CC(=N)NCCCC(C)N` (stereo not drawn) [Example 4, Ni-(1-iminoethyl)-1,4-pentanediamine, dihydrochloride], the “% inhibiton iNOS at 100 μM” value [1] is reported as 33%.

In the case of `CCC(N)CCCCNC(C)=N` (stereo not drawn) [Example 5, N1-(1-iminoethyl) -1,5-heptanediamine], the “% inhibiton iNOS at 100 μM” value [1] is reported as 27%.

With `CC(=N)Nc1ccc(C(N)CC(=O)O)cc1.Cl.Cl.O` (stereo not drawn) [Example 10, β-amino-4-[(1-iminoethyl)amino]benzenepropanoic acid, dihydrochloride hydrate] the “% inhibiton iNOS at 100 μM” value [1] was 3.4%.

For `COC(=O)CC(N)c1ccc(NC(C)=N)cc1` (stereo not drawn) [Example 10f], the “% inhibiton iNOS at 100 μM” value [1] was 7.7%.

In the case of `CC(=N)NCCCC[C@H](N)C(=O)c1cccs1` [Example 12, N-[5S-amino-6-oxo-6-(2-thienyl)hexyl]ethanimidamide, hydrate], the “% inhibiton iNOS at 100 μM (symbol)” value [1] is reported as “* (At 100 μM dose, response was not seen.)”.

For `CC(=N)NCCCC[C@H](N)C(C)=O` [Example 14, N-(5S-amino-6-oxoheptyl)ethanimidamide, dihydrochloride], the “% inhibiton iNOS at 100 μM (symbol)” value [1] was “* (At 100 μM dose, response was not seen.)”.

For `CC(=N)NCCCC[C@H](N)C(COC(C)=O)OC(C)=O` (stereo partly drawn) [Example 18, N-(6,7-diacetyloxy-5S-aminoheptyl)ethanimidamide, hydrochloride monohydrate], the “% inhibiton iNOS at 100 μM” value [1] was 7%.

For `CC(=N)NCCCC[C@H](N)C(O)COC(C)=O` (stereo partly drawn) [Example 19, N-(5S-amino-6-hydroxy-7-acetoxyheptyl)ethanimidamide, hydrochloride monohydrate], the “% inhibiton iNOS at 100 μM” value [1] was 54%.

In the case of `CC(=N)NCCCC[C@H](N)C(C)O` (stereo partly drawn) [Example 40B, N-(5S-amino-6-hydroxyheptyl)ethanimidamide, dihydrochloride dihydrate], the “% inhibiton iNOS at 100 μM” value [1] is reported as 14.5%.

For `CC(=N)NCCCC[C@H](N)c1nnn[nH]1` [Example 41, N-[5S-amino-5-(1H-tetrazol-5-yl)pentyl]ethanimidamide, dihydrochloride], the “% inhibiton iNOS at 100 μM” value [1] was 28.5%.

For `CC(=N)NCCCC[C@H](N)CO` [Example 48, N-(5S-amino-6-hydroxyhexyl)ethanimidamide], the “% inhibiton iNOS at 100 μM” value [1] was 40.6%.

For `CC(=N)NCCCC[C@H](N)c1ncc(C)o1` [Example 49, N-[5-amino-5-(5-methyloxazol-2-yl)pentyl]ethanimidamide, hydrochloride hydrate], the “% inhibiton iNOS at 100 μM” value [1] was 19.4%.

In the case of `CC(=N)NCCCC[C@H](N)C(=O)NO` [Example 50, 2S-amino-N-hydroxy-6-[(1-iminoethyl)amino]hexanamide, hydrochloride], the “% inhibiton iNOS at 100 μM” value [1] is reported as 40.6%.

In the case of `CNC(=N)NCCC[C@H](N)C(=O)O` [L-NMMA, L-N-monomethyl-arginine], the “selectivity as NO synthase inhibitor” value [6] is listed as “non-selective”.
